Tests used:
[1] = tested on: cultured nerve cells; experiment: Action of protecting cultured nerve cells from glutamic acid toxicity (LDH leakage); type: cell-based, Wistar rat; details: rat fetal cerebral cortex cells, 10 mM glutamic acid, 24 hours, read-out: ED50 (the source's name)
Text: It is known that when the blood flow to the brain is temporarily clogged due to cerebral ischemia, hypoxia, or an trauma, delayed cerebral neuronal death is induced [Document: Brain Research, Vol. 239, 57 (1982)]. A possible cause of such damage of the cerebral nerve cells is excitatory toxicity due to an excitatory neutotransmitter such as glutamic acid or the like, which is excessively released with ischemia [Document: Trends in Neuroscience, vol. 10, 299 (1987)]. […] This is a problem to be solved by the invention. This action was evaluated by using the in vitro evaluation system which will be described below.
A fetus was taken from the abdomen of a Wistar female rat on the 18 to 19th day of pregnancy under aseptic conditions, and the head of the fetus was opened to extract the brain. The brain was placed in an ice-cooled L-15 medium, and the cerebral cortex was separated under a microscope. The cerebral cortexes of about 30 rats were cut into pieces, and then suspended in 10 ml of a 0.25% trypsin solution and 0.2 ml of a 0.01% DNase solution, followed by culture at 37° C. for 30 minutes. Then, 2 ml of serum was added to the solution, and immediately the resultant mixture was centrifuged at 120 rpm for 2 minutes to separate the precipitates. To the precipitates was added 7 ml of a DF medium (a medium obtained by adding 20 nM of transferrin, 5 μg/ml of insulin, 20 nM of progesterone,60 nM of selenite, 50 U/ml of penicillin, and 50 U/ml of streptomycin to a mixture equivalent amounts of Dulbecco modified Eagle medium and F-12 medium), followed by 20 pipetting operations using a 10-ml plastic pipette to obtain a cell suspension. The cell suspension was filtered with nylon mesh (pore diameter 43 μm) to fractionate isolated cells. The thus-obtained isolated cells were diluted with a DF medium to a concentration of 6.0×10^5 cells/ml, and 500 μl of the diluted cells was inoculated in each of the 48 wells of a 48-well culture plate precoated with polylysine, followed by culture at 37° C. for 1 day in the presence of 5% of CO2. On the 2nd day, the medium was changed to a new DF medium, and 10 μl of a solution of 0.5M glutamic acid in distilled water was added to each of the wells (the final glutamic acid concentration was 10 mM), followed by further culture at 37° C. for 24 hours in the presence 5% of CO2. A test compound was dissolved in distilled water, 10% or 100% DMSO or 10% methanol, and 5 μl of the solution was added to each of the wells immediately before glutamic acid was added. As an index of nerve cell damage, the enzyme activity of lactic acid dehydrogenase (LDH) leaking from the damaged cells into the medium was measured. For each of the test compounds, the LDH leakage was measured at each of concentrations to determine a dose-response curve by the modified Cochran-Armitige method. The 50% effective dose (ED50) of each of the test compounds we determined from the curve.

[2] = tested on: middle cerebral artery ischemia model of rat; experiment: Infarction inhibiting action in middle cerebral artery ischemia (MCAo-recirculation) model of rat; type: in vivo; details: ip, 24 h, 3 mg/kg i.p. 10 minutes before occlusion and 1 hour after recirculation, infarction volume one day after, vs control group, read-out: Rate of inhibition of infarction
Text: It is also known that, in this way, in the acute stage of cerebral infarction, the lesion proceeds to the peripheral tissue from the core of infarction, and death of the nerve cells is extended with the passage of several days. This possible not only extends and creates grave aftereffects, and causes loss of motor and mental function, but also finally critically influences on the life. As an in vivo experimental model of cerebral infarction which is capable of precisely evaluating the clinical effect of a medicine in conformity with clinical conditions of the disease of a patient of cerebral infarction, the middle cerebral artery occlusion (MCAo)-recirculation model comprising an embolus with a yarn using Wister rates may be used [Document: Japan Journal of Stroke, vol. 8, 1 (1986)]. […] This action was evaluated by applying the MCAo model by the method which will be described below.
In rats of 10 weeks old, after etherization, a median incision of the cervical region was made up to the right carotid artery bifurcation under 1.0% halothane anesthetization with care to preserve the vagus nerves. The common carotid artery and the external carotid artery were separated from the periphery connective tissue with the right carotid artery bifurcation as the center, and each of the arteries was ligated by a 6-0 silk yarn (Eto yarn). Further, a yarn was wound on the internal carotid artery origin in preparation for ligation and fixing after insertion of the embolus. Next, the common carotid artery was incised, and the embolus was inserted from the common carotid artery to the internal carotid artery by about 15 to 16 mm, and ligated and fixed to the internal carotid artery by the silk yarn at the end thereof near the nylon yarn. In this operation, the end of the embolus was inserted into the anterior cerebral artery by about 1 to 2 mm beyond the middle cerebral artery bifurcation, and the inlet of the middle cerebral artery was occluded by the body (resin part) of the embolus for 1 hours. In recirculation, the embolus with a yarn was removed to recirculate the blood flow to the middle cerebral artery. 3 mg/kg of each of test compounds was intraperitoneally administered 10 minutes before occlusion and 1 hour after recirculation of the blood flow. One day after occlusion and recirculation, the whole body was perfused with physiologic saline through the heart, and the brain was extracted. The extracted brain was cooled with ice and water for 5 minutes, and cut at intervals of 2.0 mm to form 7 sections of the cerebral coronal surface. Each of the sections was stained with TTC (Triphenyltetrazolium Chloride), and fixed by a 5% neutral buffer formalin solution. In each of the sections, the infarction area in the right cerebral hemisphere was measured by an image analyzer (Olympus), and the infarction was evaluated by volume (mm^3). The infarction volume was compared with the infarction volume of a control group to calculate the rate of inhibition of infarction.

Compound | EC50 [1] [nM] | inhibition in vivo at 3 mg/kg [2] [%]
CCCCCCCc1cccc2[nH]c3c(c12)C[C@@]1(O)[C@H]2Cc4ccc(O)c5c4[C@@]1(CCN2CC1CC1)[C@H]3O5 [Compound 6, 17-cyclopropylmethyl-3,14β-dihydroxy-6,7-dehydro-4,5α-epoxy-6,7,2',3'-(4'-heptylindolo)morphinan] | 400 | 33
OCCn1c2c(c3ccc4ccccc4c31)C[C@@]1(O)[C@H]3Cc4ccc(O)c5c4[C@@]1(CCN3CC1CC1)[C@H]2O5 [Compound 81, 17-cyclopropylmethyl-3,14β-dihydroxy-6,7-dehydro-4,5α-epoxy-6,7,2',3'-[1'-(2-hydroxyethyl)-6',7'-benzoindolo]morphinan] | 67 | 11
Oc1ccc2c3c1O[C@H]1c4[nH]c5c(ccc6cccc(Cl)c65)c4C[C@@]4(O)[C@@H](C2)N(CC2CC2)CC[C@]314 [Compound 12, 17-cyclopropylmethyl-3,14β-dihydroxy-6,7-dehydro-4,5α-epoxy-6,7,2',3'-(3"-chloro-6',7'-benzoindolo)morphinan] | 35 | 67
NCCCn1c2c(c3ccc4ccccc4c31)C[C@@]1(O)[C@H]3Cc4ccc(O)c5c4[C@@]1(CCN3CC1CC1)[C@H]2O5 [Compound 25, 17-cyclopropylmethyl-3,14β-dihydroxy-6,7-dehydro-4,5α-epoxy-6,7,2',3'-[1'-(3-aminopropyl)-6',7'-benzoindolo]morphinan] | 300 | 15
Oc1ccc2c3c1O[C@H]1c4c(c5cc6c7c(cccc7c5n4Cc4ccccc4)-c4ccccc4-6)C[C@@]4(O)[C@@H](C2)N(CC2CC2)CC[C@]314 [Compound 79, 17-cyclopropylmethyl-3,14β-dihydroxy-6,7-dehydro-4,5α-epoxy-6,7,2',3'-(1'-benzyl-5',6"-benzeno-6',7'-benzoindolo)morphinan] | 190 | 26
Oc1ccc2c3c1O[C@H]1c4c(c5ccc6ccccc6c5n4CCc4ccccc4)C[C@@]4(O)[C@@H](C2)N(CC2CC2)CC[C@]314 [Compound 80, 17-cyclopropylmethyl-3,14β-dihydroxy-6,7-dehydro-4,5α-epoxy-6,7,2',3'-[1'-(2-phenylethyl)-6',7'-benzoindolo]morphinan] | 37 | 29
O=C(NCCCn1c2c(c3ccccc31)C[C@@]1(O)[C@H]3Cc4ccc(O)c5c4[C@@]1(CCN3CC1CC1)[C@H]2O5)c1ccccc1 [Compound 61, 17-cyclopropylmethyl-3,14β-dihydroxy-6,7-dehydro-4,5α-epoxy-6,7,2',3'-[1'-(3-benzamidopropyl)indolo]morphinan] | 140 | 29
Oc1ccc2c3c1O[C@H]1c4c(c5ccc6ccccc6c5n4Cc4ccc(F)cc4)C[C@@]4(O)[C@@H](C2)N(CC2CC2)CC[C@]314 [Compound 70] | 15 | 34
Oc1ccc2c3c1O[C@H]1c4[nH]c5c6c(ccc5c4C[C@@]4(O)[C@@H](C2)N(CC2CC2)CC[C@]314)-c1ccccc1C6 [Compound 20, 17-cyclopropylmethyl-3,14β-dihydroxy-6,7-dehydro-4,5α-epoxy-6,7,2',3'-(6',7',3",2"-indenoindolo)morphinan] | 27 | 10
Oc1ccc2c3c1O[C@H]1c4[nH]c5c(cc(F)c6ccccc65)c4C[C@@]4(O)[C@@H](C2)N(CC2CC2)CC[C@]314 [Compound 14, 17-cyclopropylmethyl-3,14β-dihydroxy-6,7-dehydro-4,5α-epoxy-6,7,2',3'-(5'-fluoro-6',7'-benzoindolo)morphinan] | 86 | 29
Oc1ccc2c3c1O[C@H]1c4[nH]c5c(cc6c7c(cccc75)CC6)c4C[C@@]4(O)[C@@H](C2)N(CC2CC2)CC[C@]314 [Compound 3, 17-cyclopropylmethyl-3,14β-dihydroxy-6,7-dehydro-4,5α-epoxy-6,7,2',3'-(5',6"-ethano-6',7'-benzoindolo)morphinan] | 53 | 54

From patent publication US6156762A, “Indolomorphinan derivative and agent for curing and preventing cerebral disorder” (Toray Industries, Inc., priority 1997, dated 2000)
